Values after ≈ are worked out from the molar mass of the structure shown.
What was measured:
Type in all cases: functional
Staphylococcus aureus [1] = test: Antimicrobial activity against Staphylococcus aureus after 24 hrs by microbroth dilution assay
Pseudomonas aeruginosa = test: Antimicrobial activity against Pseudomonas aeruginosa after 24 hrs by well-diffusion assay; also: test concentration or dose not given here
Streptococcus sp. = test: Antimicrobial activity against Streptococcus spp. after 24 hrs by well-diffusion assay; also: test concentration or dose not given here
Klebsiella pneumoniae = test: Antimicrobial activity against Klebsiella pneumoniae after 24 hrs by well-diffusion assay; also: test concentration or dose not given here
Bacillus subtilis = test: Antimicrobial activity against Bacillus subtilis after 24 hrs by well-diffusion assay; also: test concentration or dose not given here
Staphylococcus aureus [2] = test: Antimicrobial activity against Staphylococcus aureus after 24 hrs by well-diffusion assay; also: test concentration or dose not given here
Proteus mirabilis = test: Antimicrobial activity against Proteus mirabilis after 24 hrs by well-diffusion assay; also: test concentration or dose not given here
Escherichia coli [3] = test: Antimicrobial activity against Escherichia coli after 24 hrs by microbroth dilution assay
Escherichia coli [4] = test: Antimicrobial activity against Escherichia coli after 24 hrs by well-diffusion assay; also: test concentration or dose not given here

SMILES	MIC (Staphylococcus aureus [1]) [µg/mL]	inhibition zone (IZ) (Pseudomonas aeruginosa) [mm]	inhibition zone (IZ) (Streptococcus sp.) [mm]	inhibition zone (IZ) (Klebsiella pneumoniae) [mm]	inhibition zone (IZ) (Bacillus subtilis) [mm]	inhibition zone (IZ) (Staphylococcus aureus [2]) [mm]	inhibition zone (IZ) (Proteus mirabilis) [mm]	MIC (Escherichia coli [3]) [µg/mL]	inhibition zone (IZ) (Escherichia coli [4]) [mm]
Sc1nnnn1-c1ccccc1	1.76 (≈ 9.9 µM)	11	12	8	16	18	19	1.77 (≈ 9.91 µM)	14
c1ccc(CSc2nnnn2-c2ccccc2)cc1	–	0	0	0	0	0	0	–	0
O=c1n(Cc2ccccc2)nnn1-c1ccccc1	–	0	0	0	0	0	7	–	0
O=c1n(CCCCCCn2nnn(-c3ccccc3)c2=O)nnn1-c1ccccc1	–	0	0	0	0	0	0	–	0
c1ccc(-n2nnnc2SCCCCCCSc2nnnn2-c2ccccc2)cc1	–	0	0	0	0	0	0	–	0
CCOC(=O)CSc1nnnn1-c1ccccc1	5.29 (≈ 20 µM)	0	13	0	13	9	14	15.9 (≈ 60 µM)	0
O=C(O)CCC(=O)OCn1nnn(-c2ccccc2)c1=S	1.37 (≈ 4.44 µM)	17	19	16	12	24	11	1.37 (≈ 4.44 µM)	11
O=c1n(CCO)nnn1-c1ccccc1	5.29 (≈ 25.7 µM)	0	0	13	12	0	12	8 (≈ 38.8 µM)	11
CC(=O)OCCn1nnn(-c2ccccc2)c1=O	37 (≈ 149 µM)	0	0	0	9	0	15	37 (≈ 149 µM)	12
O=c1n(CCOCc2ccccc2)nnn1-c1ccccc1	–	0	0	0	0	0	20	–	0
O=c1n(CO)nnn1-c1ccccc1	0.19 (≈ 0.989 µM)	24	42	22	33	38	34	1.76 (≈ 9.16 µM)	30
OCn1nnn(-c2ccccc2)c1=S	1.76 (≈ 8.45 µM)	23	42	19	30	32	26	0.58 (≈ 2.79 µM)	31
CC(=O)OCn1nnn(-c2ccccc2)c1=O	2.66 (≈ 11.4 µM)	0	10	0	14	9	11	13.9 (≈ 59.3 µM)	0
CC(=O)OCn1nnn(-c2ccccc2)c1=S	4.62 (≈ 18.5 µM)	0	0	0	12	10	15	13.9 (≈ 55.5 µM)	0
O=c1[nH]nnn1-c1ccccc1	1.54 (≈ 9.52 µM)	0	11	9	14	12	0	1.54 (≈ 9.52 µM)	10

Source: ChEMBL document CHEMBL3608208, “Synthesis, antibacterial and QSAR evaluation of 5-oxo and 5-thio derivatives of 1,4-disubstituted tetrazoles” (2015)
